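Tested at 5 concentrations; 48 h exposure; 96-well plates; endpoints linearly interpolated, else capped at highest concentration. GI50 = concentration required for 50% inhibition of growth. At the TGI there is no net growth.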
Key:
Experiment in all cases: inhibition of tumour cell growth, NCI panel, 48 h
T-47D breast = system: T-47D breast
OVCAR-4 ovarian = system: OVCAR-4 ovarian
UACC-62 melanoma = system: UACC-62 melanoma
HS 578T breast = system: HS 578T breast
SF-295 CNS = system: SF-295 CNS
COLO 205 colon = system: COLO 205 colon
SK-MEL-2 melanoma = system: SK-MEL-2 melanoma
HOP-62 NSCLC = system: HOP-62 NSCLC
SF-539 CNS = system: SF-539 CNS
LOX IMVI melanoma = system: LOX IMVI melanoma

Row | SMILES | TGI (T-47D breast) [µM] | TGI (OVCAR-4 ovarian) [µM] | TGI (UACC-62 melanoma) [µM] | TGI (HS 578T breast) [µM] | TGI (SF-295 CNS) [µM] | TGI (COLO 205 colon) [µM] | TGI (SK-MEL-2 melanoma) [µM] | TGI (HOP-62 NSCLC) [µM] | TGI (SF-539 CNS) [µM] | TGI (LOX IMVI melanoma) [µM] | GI50 (T-47D breast) [µM] | GI50 (OVCAR-4 ovarian) [µM] | GI50 (UACC-62 melanoma) [µM] | GI50 (HS 578T breast) [µM] | GI50 (SF-295 CNS) [µM] | GI50 (COLO 205 colon) [µM] | GI50 (SK-MEL-2 melanoma) [µM] | GI50 (HOP-62 NSCLC) [µM] | GI50 (SF-539 CNS) [µM] | GI50 (LOX IMVI melanoma) [µM]
1 | Cc1cccnc1/N=C/c1c(O)n(C)c(=O)[nH]c1=O | > 100 | > 100 | > 100 | > 100 | > 100 | > 100 | > 100 | > 100 | > 100 | > 100 | – | – | – | – | – | – | – | – | – | –
2 | Cc1ccc(OC2CC(n3cnc4ncnc(Cl)c43)OC2Oc2ccc(C)cc2)cc1 (stereo not given) | 28.8 | > 100 | 96.7 | 76.9 | 56.7 | 46.5 | 32.2 | 90.2 | 31.5 | > 100 | – | – | – | – | – | – | – | – | – | –
3 | O=C1CCCC/C1=C\c1ccc(Br)cc1 | 51 | 46.7 | 19.6 | 52.3 | 49.7 | 32.8 | 46.4 | 42.8 | 37.1 | > 100 | – | – | – | – | – | – | – | – | – | –
4 | CCCCCCCCCCCCCC[S+](C)C | > 10 | 7.31 | 6.78 | 3.78 | > 10 | 2.97 | 5.13 | 3.87 | 2.79 | 4.34 | – | – | – | – | – | – | – | – | – | –
5 | CCOC(=O)C(C(=S)Nc1ccccc1)c1nn2c(=O)cc(C)nc2s1 (stereo not given) | 85.2 | > 100 | 66.1 | > 100 | > 100 | 39.5 | 94.8 | > 100 | 86.6 | 30.4 | – | – | – | – | – | – | – | – | – | –
6 | O=C(CCCCCCC(=O)Nc1cccnc1)NO | 8.12 | > 100 | 18.5 | > 95.3 | > 100 | > 20.5 | 17.9 | > 100 | > 100 | 38.9 | – | – | – | – | – | – | – | – | – | –
7 | O=c1[nH]c(Nc2cc(Cl)cc(Cl)c2)nc2nc[nH]c12 | > 75 | > 75 | > 75 | 68.5 | > 75 | > 75 | > 75 | > 75 | > 75 | > 75 | – | – | – | – | – | – | – | – | – | –
8 | CCOC(=O)c1ccc(C(=O)/C(C(C)=O)=C2\CCCN2C)n1C | 92 | > 100 | > 100 | > 100 | > 100 | > 100 | > 100 | > 100 | 22.8 | > 100 | – | – | – | – | – | – | – | – | – | –
9 | O=C1[C@@H]2[C@@H](c3ccccc3)[C@]2(Cl)C(=O)[C@H]2[C@H](c3ccccc3)[C@@]12Cl | > 100 | > 100 | > 100 | > 100 | > 100 | > 100 | > 100 | > 100 | > 100 | > 100 | – | – | – | – | – | – | – | – | – | –
10 | CC(C)[Si](OC1=CCC[C@H]2NC(=O)[C@@H](Cc3ccccc3)[C@@]12C)(C(C)C)C(C)C | 12.2 | 19.7 | 22.4 | 18.5 | 17.2 | 6.35 | 29.7 | 24.2 | 19.1 | 11.2 | – | – | – | – | – | – | – | – | – | –
11 | N#CCCC1(CCC#N)CCCCCCCCC(CCC#N)(CCC#N)C(=O)C1=O | > 100 | > 100 | > 100 | > 100 | > 100 | > 100 | > 100 | > 100 | > 100 | > 100 | – | – | – | – | – | – | – | – | – | –
12 | COc1ccc(OC)c(CC2CCc3nc(N)nc(N)c3C2)c1 (stereo not given) | > 68 | > 100 | 25.8 | > 70.8 | 27.7 | 29.2 | 43.6 | 24.4 | 22.6 | 25.6 | – | – | – | – | – | – | – | – | – | –
13 | O=C1/C(=C/c2ccc(Cl)cc2)N=C(c2ccccc2)N1CCc1cccs1 | > 100 | > 100 | 63.2 | > 100 | > 100 | 39.9 | > 100 | > 100 | > 100 | > 100 | 18.2 | 7.72 | 13.8 | 20.3 | 17.7 | 16 | 14 | 47.3 | 48.2 | 8.52
14 | Brc1ccc2c([C@H]3CN[C@@H](c4c[nH]c5cc(Br)ccc45)CN3)c[nH]c2c1 | 12.8 | 4.69 | 23.2 | 25.2 | 19.3 | 2.91 | 9.76 | 23.8 | 7.46 | 3.36 | – | – | – | – | – | – | – | – | – | –
15 | Cc1noc2nnn(-c3ccc(Cl)cc3)c(=O)c12 | 10.8 | 57.3 | 17.8 | > 60.3 | 27.8 | 11.9 | 10.5 | 29.7 | 1.73 | 11.4 | – | – | – | – | – | – | – | – | – | –

Reference: PubChem BioAssay (NCI)
